Results: patent US20070027162A1, “Crystalline and amorphous 4-cyano-N-{(2R)-2-[4-(2,3-dihydro-benzo[1,4]dioxin-5-yl)-piperazin -1-yl]-propyl}-N-pyridin-2-yl-benzamide hydrochloride” (Wyeth, priority 2005, published 2007)
Read-outs that look alike come from different tables or passages of the source. Values belong to the molecule of their own block, whether it stands above or below them.

How the values were obtained:
Type in all cases: physicochemical
[1] = Solubility determination in a variety of solvents
Experimental: The solubility of the compound of Formula I in a variety of solvents was measured according to routine methods at 23° C. and 50° C.

[2] = Reslurry experiments, 12 days at RT, XRD while wet; details: ethanol, IPA, ethyl acetate, acetone, THF, acetonitrile, toluene, iso-propyl acetate, water, days 6 and 12
Experimental: 4-cyano-N-{(2R)-2-[4-(2,3-dihydro-benzo[1,4]dioxin-5-yl)-piperazin-1-yl]-propyl}-N-pyridin-2-yl-benzamide hydrochloride was reslurried in about 1-2 ml of ethanol, IPA, ethyl acetate, acetone, THF, acetonitrile, toluene, iso-propyl acetate, and water. The suspensions were stirred in 5 ml vials for 12 days at RT. The suspension samples were withdrawn at days 6 and 12, filtered, and analyzed via XRD while wet.

[3] = Polymorph screen by reslurry at 23° C. and 50° C.; details: slurrying in a variety of different solvents at 23° C. and 50° C.
From the text: Thermogravimetric analysis (TGA) and differential scanning calorimetry (DSC) data of products of various re-slurries are compared in Tables B and C below together with TGA/DSC data from the crystal form of the invention prepared according to Example 1. TGA/DSC data was obtained as described in Example 3. While DSC endotherms and TGA weight losses slightly differ between experiments, the variation is expected for HCl loss and decomposition of the sample. Powder X-ray diffraction data (see below Examples) of samples from each of the slurries were consistent with the diffraction pattern of FIG. 1 and Table 1.

- solubility ([1]; organic solvent or mixture, solvent 2-Propanol, 23° C., read-out: Solubility at 23° C.): 2 mg/mL
- solubility ([1]; organic solvent or mixture, solvent 2-Propanol, 50° C., read-out: Solubility at 50° C.): 6 mg/mL
- solubility ([1]; organic solvent or mixture, solvent Acetone, 23° C., read-out: Solubility at 23° C.): 6 mg/mL
- solubility ([1]; organic solvent or mixture, solvent Acetone, 50° C., read-out: Solubility at 50° C.): 9 mg/mL
- solubility ([1]; organic solvent or mixture, solvent CH3CN, 23° C., read-out: Solubility at 23° C.): 18 mg/mL
- solubility ([1]; organic solvent or mixture, solvent CH3CN, 50° C., read-out: Solubility at 50° C.): 37 mg/mL
- solubility ([1]; organic solvent or mixture, solvent DMSO, 23° C., read-out: Solubility at 23° C.): 246 mg/mL
- solubility ([1]; organic solvent or mixture, solvent DMSO, 50° C., read-out: Solubility at 50° C.): 337 mg/mL
- solubility ([1]; organic solvent or mixture, solvent EtOH, 23° C., read-out: Solubility at 23° C.): 19 mg/mL
- solubility ([1]; organic solvent or mixture, solvent EtOH, 50° C., read-out: Solubility at 50° C.): 40 mg/mL
- solubility ([1]; organic solvent or mixture, solvent Ethyl acetate, 23° C., read-out: Solubility at 23° C.): 16 mg/mL
- solubility ([1]; organic solvent or mixture, solvent Ethyl acetate, 50° C., read-out: Solubility at 50° C.): 24 mg/mL
- solubility ([1]; organic solvent or mixture, solvent Heptane, 23° C., read-out: Solubility at 23° C.): 1 mg/mL
- solubility ([1]; organic solvent or mixture, solvent Heptane, 50° C., read-out: Solubility at 50° C.): 1 mg/mL
- solubility ([1]; organic solvent or mixture, solvent MeOH, 23° C., read-out: Solubility at 23° C.): 378 mg/mL
- solubility ([1]; organic solvent or mixture, solvent MeOH, 50° C., read-out: Solubility at 50° C.): 989 mg/mL
- solubility ([1]; organic solvent or mixture, solvent THF, 23° C., read-out: Solubility at 23° C.): 4 mg/mL
- solubility ([1]; organic solvent or mixture, solvent THF, 50° C., read-out: Solubility at 50° C.): 5 mg/mL
- solubility ([1]; organic solvent or mixture, solvent Toluene, 23° C., read-out: Solubility at 23° C.): 8 mg/mL
- solubility ([1]; organic solvent or mixture, solvent Toluene, 50° C., read-out: Solubility at 50° C.): 14 mg/mL
- solubility ([1]; organic solvent or mixture, solvent t-Butylmethyl ether (t-BME), 50° C., read-out: Solubility at 50° C.): 1 mg/mL
- solubility ([1]; solvent Water, 23° C., read-out: Solubility at 23° C.): 49 mg/mL
- solubility ([1]; solvent Water, 50° C., read-out: Solubility at 50° C.): > 100 mg/mL
- Solubility in water (qualitative) ([1]; water, remark explaining oiling out on cooling): very high solubility
Compound: C[C@H](CN(C(=O)c1ccc(C#N)cc1)c1ccccn1)N1CCN(c2cccc3c2OCCO3)CC1.Cl [Formula I, 4-cyano-N-{(2R)-2-[4-(2,3-dihydro-benzo[1,4]dioxin-5-yl)-piperazin-1-yl]-propyl}-N-pyridin-2-yl-benzamide hydrochloride]

- Form transformation on reslurry (XRD) [2]: No transformation was noticed
- Stability of crystal form upon slurrying [3]: remained stable
Compound: C[C@H](CN(C(=O)c1ccc(C#N)cc1)c1ccccn1)N1CCN(c2cccc3c2OCCO3)CC1.Cl [Form A, 4-cyano-N-{(2R)-2-[4-(2,3-dihydro-benzo[1,4]dioxin-5-yl)-piperazin-1-yl]-propyl}-N-pyridin-2-yl-benzamide hydrochloride]
